Results published in EP1298213A1, “Variants of an Erwinia-type creatinase” (Roche Diagnostics GmbH, priority 2001, dated 2003).

Assays:
[1] = test system: creatinase from Alcalingenes; conditions: reported in patent US 5,451,520; substrate creatine taken from context (b8); cited from earlier work
[2] = test system: Erwinia sp. DSM 97-934 creatinase variant CT1m24 (N130D, I278T), SEQ ID NO: 10; test: Km determination, coupled creatinase activity assay; format: biochemical; conditions: creatine substrate at 90, 45, 22.5, 11.3, 5.6 and 2.8 mM; 0.1 M potassium phosphate buffer pH 7.8; 25°C
Procedure: (§1) The activity assay for creatinase and its variants was performed by using creatine as substrate and a coupled enzymatic reaction according to Guder, W. G., et al., J Clin Chem Clin Biochem 24 (1986) 889-902.
(§2) The reaction mixture was set up by combining the following reagents:
(§3) The assay for creatinase was carried out at 25°C and at the wavelength of 546 nm for 10 min. ΔE was calculated from the measurement points of 6 to 10 min.
(§4) For KM determination, creatinase activity was determined according to the assay procedure described in Example 3 using six different concentrations of creatine substrate: 90 mM, 45 mM, 22.5 mM, 11.3 mM, 5.6 mM and 2.8 mM.

[3] = test system: Erwinia sp. DSM 97-934 creatinase variant CT2m9 (N130D, M203V, I278T), SEQ ID NO: 12; test: as above; format: biochemical; conditions: creatine substrate at 90, 45, 22.5, 11.3, 5.6 and 2.8 mM; 0.1 M potassium phosphate buffer pH 7.8; 25°C
Procedure: as §1, §2, §3, §4

[4] = test system: Erwinia sp. DSM 97-934 creatinase variant CT2m28 (N130D, I304L, I278T), SEQ ID NO: 16; test: as above; format: biochemical; conditions: creatine substrate at 90, 45, 22.5, 11.3, 5.6 and 2.8 mM; 0.1 M potassium phosphate buffer pH 7.8; 25°C
Procedure: as §1, §2, §3, §4

[5] = test system: Erwinia sp. DSM 97-934 creatinase variant CTsd7 (F59W, N130D, M203V, I278T, F395L), SEQ ID NO: 22; test: as above; format: biochemical; conditions: creatine substrate at 90, 45, 22.5, 11.3, 5.6 and 2.8 mM; 0.1 M potassium phosphate buffer pH 7.8; 25°C
Procedure: as §1, §2, §3, §4

[6] = test system: Erwinia sp. DSM 97-934 creatinase variant CTqc2 (F59W, N130D, I278T), SEQ ID NO: 18; test: as above; format: biochemical; conditions: creatine substrate at 90, 45, 22.5, 11.3, 5.6 and 2.8 mM; 0.1 M potassium phosphate buffer pH 7.8; 25°C
Procedure: as §1, §2, §3, §4

[7] = test system: Erwinia sp. DSM 97-934 creatinase variant CT2m10 (N130D, I278T, F395L), SEQ ID NO: 14; test: as above; format: biochemical; conditions: creatine substrate at 90, 45, 22.5, 11.3, 5.6 and 2.8 mM; 0.1 M potassium phosphate buffer pH 7.8; 25°C
Procedure: as §1, §2, §3, §4

[8] = test system: Erwinia sp. DSM 97-934 creatinase variant CTsd2 (N130D, M203V, I278T, F395L), SEQ ID NO: 20; test: as above; format: biochemical; conditions: creatine substrate at 90, 45, 22.5, 11.3, 5.6 and 2.8 mM; 0.1 M potassium phosphate buffer pH 7.8; 25°C
Procedure: as §1, §2, §3, §4

[9] = test system: Erwinia sp. DSM 97-934 creatinase, wild type, SEQ ID NO:2; test: as above; format: biochemical; conditions: creatine substrate at 90, 45, 22.5, 11.3, 5.6 and 2.8 mM; 0.1 M potassium phosphate buffer pH 7.8; 25°C
Procedure: as §1, §2, §3, §4

In the case of `CN(CC(=O)O)C(=N)N` [creatine], the Km [1] is listed as 13 mM, the Km [2] is listed as 8.2 mM and the Km [3] is listed as 6.3 mM. For the same compound, the Km [4] was 4 mM, the Km [5] was 2 mM and the Km [6] was 6.6 mM. The Km [7] was 3.4 mM, the Km [8] was 2.1 mM and the Km [9] was 4.3 mM.
